Test results reported in ChEMBL document CHEMBL1201862, “PubChem BioAssay data set” (2004).
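Protocol summary: plate cells (96-well), add compound at 5 concentrations, incubate 48 h, interpolate endpoints linearly. GI50: concentration for 50% inhibition of growth.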 The source made the active and inactive calls. Rule as the data show it: active = GI50 up to about 1.1 µM and inactive = higher. Where a SMILES comes first, the peptide text is derived from it. [ ]: non-standard residue; d: D form. The star is where a group is joined. Phe(4-NO2) = N[CH](Cc1ccc([N+](=O)[O-])cc1)C(=O)O; Boc = CC(C)(C)OC(=O)*; OtBu = CC(C)(C)O*

Key:
Test in all cases: growth of human tumour cells (NCI), 48 h
SN12C = system: SN12C
IGROV-1 = system: IGROV-1
PC-3 = system: PC-3
NCI-H226 = system: NCI-H226
SK-OV-3 = system: SK-OV-3
MOLT-4 = system: MOLT-4
CAKI-1 = system: CAKI-1
UACC-62 = system: UACC-62
MCF7 = system: MCF7
MDA-MB-231 = system: MDA-MB-231
UACC-257 = system: UACC-257
OVCAR-5 = system: OVCAR-5
SF-268 = system: SF-268
MDA-MB-435 = system: MDA-MB-435
HOP-92 = system: HOP-92
HL-60 = system: HL-60
KM12 = system: KM12
SF-539 = system: SF-539
RXF 393 = system: RXF 393
A498 = system: A498

| SMILES | GI50 (SN12C) | GI50 (IGROV-1) | GI50 (PC-3) | GI50 (NCI-H226) | GI50 (SK-OV-3) | GI50 (MOLT-4) | GI50 (CAKI-1) | GI50 (UACC-62) | GI50 (MCF7) | GI50 (MDA-MB-231) | GI50 (UACC-257) | GI50 (OVCAR-5) | GI50 (SF-268) | GI50 (MDA-MB-435) | GI50 (HOP-92) | GI50 (HL-60) | GI50 (KM12) | GI50 (SF-539) | GI50 (RXF 393) | GI50 (A498) |
| --- | --- | --- | --- | --- | --- | --- | --- | --- | --- | --- | --- | --- | --- | --- | --- | --- | --- | --- | --- | --- |
| CCCCCCCCCCCCCC(=O)NO | 8.55 µM (inactive) | 17.4 µM (inactive) | 4.32 µM (inactive) | 5.05 µM (inactive) | 30.5 µM (inactive) | 0.492 µM (active) | 17.3 µM (inactive) | 6.68 µM (inactive) | 3.8 µM (inactive) | 7.01 µM (inactive) | 29.2 µM (inactive) | 17.6 µM (inactive) | 7.78 µM (inactive) | 25.3 µM (inactive) | 15.8 µM (inactive) | 1.17 µM (inactive) | 9.42 µM (inactive) | 14.1 µM (inactive) | 5.75 µM (inactive) | 23.5 µM (inactive) |
| CC(=O)OCCN1c2ccccc2Sc2cnccc21 | > 10 µM (inactive) | > 10 µM (inactive) | > 10 µM (inactive) | > 10 µM (inactive) | > 10 µM (inactive) | > 10 µM (inactive) | > 10 µM (inactive) | > 10 µM (inactive) | > 10 µM (inactive) | > 10 µM (inactive) | > 10 µM (inactive) | > 10 µM (inactive) | > 10 µM (inactive) | > 10 µM (inactive) | > 10 µM (inactive) | > 10 µM (inactive) | 0.067 µM (active) | > 10 µM (inactive) | > 10 µM (inactive) | > 10 µM (inactive) |
| CC1=NN(c2nc(N)nc(CBr)n2)C(C)(C)C1 | 5.22 µM (inactive) | 1.49 µM (inactive) | 5.33 µM (inactive) | 2.61 µM (inactive) | 17.3 µM (inactive) | 1.61 µM (inactive) | 1.47 µM (inactive) | 7.28 µM (inactive) | 2.47 µM (inactive) | 7.18 µM (inactive) | 11.9 µM (inactive) | 3.71 µM (inactive) | 6.01 µM (inactive) | 11 µM (inactive) | 0.436 µM (active) | 0.975 µM (active) | 10.7 µM (inactive) | 2.3 µM (inactive) | 2.78 µM (inactive) | 12.9 µM (inactive) |
| CCCCC1=C(C(=O)N2CCOCC2)C2(OCCO2)C1Cl (stereo not given) | 22.2 µM (inactive) | 32.4 µM (inactive) | 35.6 µM (inactive) | 35.8 µM (inactive) | 26 µM (inactive) | > 100 µM (inactive) | 29.2 µM (inactive) | 31.6 µM (inactive) | 20 µM (inactive) | 64 µM (inactive) | 24.3 µM (inactive) | 19.4 µM (inactive) | 40.8 µM (inactive) | 21.7 µM (inactive) | 50.2 µM (inactive) | > 100 µM (inactive) | 20.7 µM (inactive) | 16.4 µM (inactive) | 29.5 µM (inactive) | 66.7 µM (inactive) |
| CCOC(=O)c1c(N2CCOCC2)ncn(-c2cccc(Cl)c2)c1=O | > 100 µM (inactive) | > 100 µM (inactive) | > 100 µM (inactive) | > 100 µM (inactive) | > 100 µM (inactive) | > 100 µM (inactive) | > 100 µM (inactive) | > 100 µM (inactive) | > 100 µM (inactive) | > 100 µM (inactive) | > 100 µM (inactive) | > 100 µM (inactive) | > 100 µM (inactive) | > 100 µM (inactive) | > 100 µM (inactive) | > 100 µM (inactive) | > 100 µM (inactive) | > 100 µM (inactive) | > 100 µM (inactive) | 0.159 µM (active) |
| COc1cccc(C2CC(C)(N3CCCC3)Oc3cc4c(cc32)OCO4)c1O (stereo not given) | 25.6 µM (inactive) | 26.2 µM (inactive) | 10.6 µM (inactive) | 19.1 µM (inactive) | 29.6 µM (inactive) | 21.8 µM (inactive) | 31.7 µM (inactive) | 22.1 µM (inactive) | 39.1 µM (inactive) | 19.1 µM (inactive) | 35.4 µM (inactive) | 29.7 µM (inactive) | 30.3 µM (inactive) | 4.39 µM (inactive) | 31.3 µM (inactive) | 15.4 µM (inactive) | 22 µM (inactive) | 19.4 µM (inactive) | 26.7 µM (inactive) | 28.3 µM (inactive) |
| Cn1c(O)c(C(=O)Nc2ccc([N+](=O)[O-])cc2)c(=O)n(C)c1=S | 3.13 µM (inactive) | 2.55 µM (inactive) | 1.34 µM (inactive) | 4.33 µM (inactive) | 3.64 µM (inactive) | 3.08 µM (inactive) | 2.81 µM (inactive) | 1.23 µM (inactive) | 1.78 µM (inactive) | 2.54 µM (inactive) | 2.32 µM (inactive) | 4.91 µM (inactive) | 2.64 µM (inactive) | 1.51 µM (inactive) | 1.54 µM (inactive) | 2.25 µM (inactive) | 2.49 µM (inactive) | 1.9 µM (inactive) | 1.12 µM (active) | 0.499 µM (active) |
| C=C(C)C1CC/C(C)=C/CCC2(C)OC2CC/C(CO)=C\C1O (stereo not given) | > 100 µM (inactive) | 68.1 µM (inactive) | 64.3 µM (inactive) | > 100 µM (inactive) | > 100 µM (inactive) | 43 µM (inactive) | > 100 µM (inactive) | 80 µM (inactive) | 91.4 µM (inactive) | > 100 µM (inactive) | > 100 µM (inactive) | > 100 µM (inactive) | 66.7 µM (inactive) | 60 µM (inactive) | 7.28 µM (inactive) | 59.2 µM (inactive) | > 100 µM (inactive) | 67 µM (inactive) | > 100 µM (inactive) | > 100 µM (inactive) |
| COc1ccc(/C=N/N=C(\N)NO)c(O)c1 | 8.53 µM (inactive) | 8.77 µM (inactive) | 3.48 µM (inactive) | 3.98 µM (inactive) | 7.38 µM (inactive) | > 10 µM (inactive) | 4.11 µM (inactive) | 4.53 µM (inactive) | 4.34 µM (inactive) | > 10 µM (inactive) | 6.52 µM (inactive) | > 10 µM (inactive) | > 10 µM (inactive) | 2.09 µM (inactive) | > 10 µM (inactive) | 4.39 µM (inactive) | 4.57 µM (inactive) | > 10 µM (inactive) | > 10 µM (inactive) | 8.77 µM (inactive) |
| CC(C)/C(Cl)=N/OC(=O)Nc1ccc(Br)cc1 | 2.16 µM (inactive) | 13 µM (inactive) | 13.6 µM (inactive) | 16.7 µM (inactive) | 16.7 µM (inactive) | 2.39 µM (inactive) | 1.73 µM (inactive) | 3.82 µM (inactive) | 7.66 µM (inactive) | 16.1 µM (inactive) | 15.2 µM (inactive) | 14.6 µM (inactive) | 17.1 µM (inactive) | 11 µM (inactive) | 1.77 µM (inactive) | 2.58 µM (inactive) | 12.9 µM (inactive) | 13.2 µM (inactive) | 10.2 µM (inactive) | 18.4 µM (inactive) |
| COC(=O)C(Cc1ccc([N+](=O)[O-])cc1)NC(=O)C(CC(=O)OC(C)(C)C)NC(=O)OC(C)(C)C (stereo not given) (Boc-Asp(OtBu)-[Phe(4-NO2)]-OMe; configuration not given here) | > 100 µM (inactive) | > 100 µM (inactive) | > 100 µM (inactive) | > 100 µM (inactive) | > 100 µM (inactive) | 66.8 µM (inactive) | > 100 µM (inactive) | > 100 µM (inactive) | > 100 µM (inactive) | 25.8 µM (inactive) | > 100 µM (inactive) | > 100 µM (inactive) | > 100 µM (inactive) | > 100 µM (inactive) | > 100 µM (inactive) | > 100 µM (inactive) | > 100 µM (inactive) | > 100 µM (inactive) | > 100 µM (inactive) | > 100 µM (inactive) |
| CCCCCCCCCCCCCC(=O)O[C@H]1CC[C@H](NC(=O)[C@H](OC)[C@H](O)[C@@H](O)[C@H](O)/C=C/C(C)C)C(=O)NC1 [BENGAMIDE A] | 0.00542 µM (active) | 0.00708 µM (active) | 0.147 µM (active) | 0.145 µM (active) | 0.149 µM (active) | 0.00512 µM (active) | 0.292 µM (active) | 0.00512 µM (active) | 0.0392 µM (active) | 0.137 µM (active) | 0.0205 µM (active) | 38.1 µM (inactive) | 0.00893 µM (active) | 0.204 µM (active) | 0.0204 µM (active) | 0.00512 µM (active) | 0.00512 µM (active) | 0.0197 µM (active) | 0.175 µM (active) | 0.0389 µM (active) |
